We go through 13 compounds from paper PMC3263710, “Synthesis and Inhibiting Activity of Some 4-Hydroxycoumarin Derivatives on HIV-1 Protease” (ISRN Pharmaceutics, 2011).

The test system of one series is HIV-1 protease. Also noted: method as in PMID 8185622. The following applies: binding activity of the experimental ligands on HIV-1 protease; cited from earlier work.
For another series, the system named is HIV-1 III B. Description: Microtiter infection assay, protection of MT-4 cells from HIV cytopathic effect (MTT). The series is classed as cell-based. The following applies: for Infection assay MTT- % cell survival / inhibition of virus infectivity / viral replication in MT-4 cells: HIV-1-infected MT-4 cells; for Infection assay MTT- % cell survival: compound at MNC, 72–96 hours. As for the experimental part:
The evaluation of anti-HIV effect was done by an in vitro rapid and sensitive microtiter infection assay based on cytolysis quantitation by vital dye (MTT) uptake as an endpoint for infection. Additionally, the effect of inhibitors on endogenous reverse transcriptase (RT) activity of HIV-1 III B-infected MT-4 supernatants was considered as a marker for the ability of blocking HIV-1 replication. MT-4 cells were infected and incubated with each inhibitor for 72–96 hours, and then RT activity was measured in the cell supernatants according to guidelines in the HS-Lenti Kit-RT assay (Cavidi, Sweden). A study of direct effect of the newly synthesized 4-hydroxycoumarins on exogenous recombinant RT (rRT) was also performed. Further, all the compounds were tested for anti-HIV-1 PR activity. Table 3 represents the results of microtiter infection assay using MTT and inhibition of HIV-1 PR activity. The experiments were carried out in maximal nontoxic concentration (MNC) for each compound.
MT-4—a human lymphoblastoid suspension cell line, kindly provided by Gianfranco Pancino— Institute Pasteur, (Unite de Regulation des Infections Retrovirales, Paris, France) represent a classical model for experimental productive infection with HIV-1 III B strain and used as a routine target for study of effect of putative HIV inhibitors in cell culture.
As a source of HIV-1, supernatants of H9/HTLV III B line—a gift from Dr. R. Gallo (NIH, USA)— were used. Supernatants were collected and centrifuged to remove the cells, and virus stocks were prepared with known p24 antigen content (460 pg/mL, Murex HIV Antigen mAB test), RT activity (565.3 pg RT/mL, HS-Lenti RT Activity Kit, Cavidi, Sweden), and infectivity (2 × 10^6 infectious virions/mL, microtiter infection assay). MT-4 and H9/HTLV III B cells were grown in RPMI 1640 supplemented with 10% FCS (invitrogen).
(§1) The following parameters were studied: cytotoxic concentration 50—CC50, where possible (the concentration preventing death of 50% of MT-2 cells), maximal nontoxic concentration—MNC, and inhibitory concentration 50-IC50 (concentration inhibiting by 50% the viral replication). CC50 and MNC were detected by MTT uptake assay. IC50 was studied on MT-4 cells by microtiter infection assay exploring the protection of cells from the cytopathic effect of HIV measured by MTT test. Experiments under conditions of acute infection were performed in 96-well microplates with 6–8 parallels/experiment. Cell controls (MT-4 cells with medium only) and viral controls (virus infected MT-4 cells) were run with each experiment. For antivirus assays, HIV was added to each well to obtain multiplicity of infection 0.1 except the cell controls. Virus attachment was allowed for an hour at 37°C/5% CO2. The plates were incubated for 72–96 hours at 37°C/5% CO2. After that, MTT test was performed as described and absorbance of viable cells was measured colorimetrically at A540 nm. […] For antiviral assays, the mean values of experimental and control rows were compared and the percentage of cells protected (cell survival) under the appropriate concentration of the substance was plotted against the concentration of the substance to obtain IC50. The cell survival (% of cell protection) was calculated according to the following formula:
(1) % cell protection =A540X−A540 Control HIV/ A540 Cell Control−A540 Control HIV ×100, where X is the mean value of A540 of HIV-infected cells treated with appropriate concentration of the compound under study; control HIV is the mean value of A540 of HIV-infected cells without any compound added; cell control is the mean value of A540 of uninfected and untreated with inhibitor cells.

The next series concerns the target T1, native HIV-1 protease (Human immunodeficiency virus type 1 group M subtype B, UniProt P04585).
T1 construct: The lysis of viral particles and releasing of the active enzyme (protease) was performed using disrupting (lysis) buffer; endogenous in cells; host or cells: Virions from supernatants of chronically infected H9/HTLV IIIB cells, concentrated 50x and lysed with Triton X-100
Description: Antiprotease activity using native viral PR, spectrophotometric substrate utilization. The note with it: compound at MNC. The series is classed as biochemical. As for the experimental part: A method described earlier by Broglia et al., 2006 [19], for detection of recombinant protease activity was modified to use native viral protease. As a source of native HIV-1 protease, again suspension of concentrated viral stock (50x) from chronically infected H9/HTLV IIIB cell supernatants was used. The lysis of viral particles and releasing of the active enzyme (protease) was performed using disrupting (lysis) buffer containing 2.5% Triton X-100 in phosphate buffer. The concentration of the tissue culture fluid containing the virus was done by ultracentrifugation in Biofuge Stratos, Heraeus, for 1 hour, at 4°C and 35000 rev/min. The pellet was resuspended to obtain 50x concentrate in disrupting buffer.
The following reaction mixture was prepared for each experiment : 1000 μL phosphate buffer (20 mM, pH 6.0); 20 μL HIV protease substrate III ([…], 760 μM; Bachem, Switzerland) in DMSO, prepared ex tempore; 20 μL enzyme (stock HIV) taken from a solution containing 25 μL disrupting (lysis) buffer + 100 μL HIV-stock, incubated 40 min at 37°C prior to experiment.
The HIV-1 PR activity was measured using direct spectrophotometric reading of the enzyme reaction substrate utilization at 300 nm, at room temperature and 1 cm pathlength, using T80 + UV-Vis spectrophotometer (PG instruments). The initial reaction velocity (V0) was adjusted to be 0.0020–0.0030 ΔAbs/min by varying the enzyme activity (viral concentration). The tested compound and the reference inhibitor (pepstatin used here) was added to the reaction mixture prior to enzyme, in order to perform the screening for inhibitory effect. IC50 was defined as the concentration of the compound tested that decreases the velocity of the reaction by 50% of the initial velocity without tested (reference) compound.

For a further series, the system named is MT-4 cells. Description: Cytotoxicity by MTT uptake assay (maximal nontoxic concentration). The series is classed as cell-based. The note with it: for maximal nontoxic concentration (MNC): MTT uptake assay; for maximal nontoxic concentration (MNC) / maximal nontoxic concentration (MNC), concentration tested: Table 3; for maximal nontoxic concentration (MNC), concentration tested: reference inhibitors. As for the experimental part:
The compounds under study were first dissolved in DMSO and further diluted in cell growth medium without fetal serum. All the solutions were prepared ex tempore.
as §1, with “CC50” for “The following parameters were studied: cytotoxic concentration 50—CC50, where possible (the concentration preventing death of 50% of MT-2 cells), maximal nontoxic concentration—MNC, and inhibitory concentration 50-IC50 (concentration inhibiting by 50% the viral replication). CC50”, “formula: […]” for “formula:”
On the technique in general: Formazan colour is commonly taken as a measure of viable cells.

Non-standard residues stand in square brackets, D forms with d. Residues, ends and D or L forms follow the SMILES beside them. *: point of attachment. Sta = CC(C)C[C@H](N)[C@@H](O)CC(=O)O; Isovaleryl = CC(C)CC(=O)*

As to “3-(3,4-dimethoxybenzyl)-4-hydroxy-2H-chromen-2-one [Ligand (2)]”, in the series on HIV-1 protease, the IC50 was 84 µM.
For “3-(3,4-dimethoxybenzyl)-4-hydroxy-8-methyl-2H-chromen-2-one [Ligand (3)]”, the IC50 in the series with HIV-1 protease is 23 µM.
Consider “3-benzyl-4-hydroxy-8-phenyl-2H-chromen-2-one [Ligand (4)]”, for which, in the series on HIV-1 protease, the IC50 is 8.1 µM.
On to “4-hydroxy-3-(1-phenoxypropyl)-2H-chromen-2-one [Ligand (1)]”, for which, in the series on HIV-1 protease, the IC50 is 2.7 µM.
In the case of “4-hydroxy-3-(3-oxo-1-phenylbutyl)-2H-chromen-2-one [Ligand (5)]”, the IC50 with HIV-1 protease was 18 µM.
For `CCOC(=O)C(C(C)=O)C(c1ccc([N+](=O)[O-])cc1)c1c(O)c2ccccc2oc1=O` (stereo not shown) [(8), Ethyl 2-[(4-Hydroxy-2-Oxo-2H-Chromen-3-yl)(4-Nitrophenyl)Methyl]-3-Oxobutanoate], the “Infection assay MTT- % cell survival” value in the series with HIV-1 III B was 0%. For the same compound, at native HIV-1 protease, the “% Inhibition of HIV-1 protease activity” value came to 0%. In addition, the “maximal nontoxic concentration (MNC)” value in the series with MT-4 cells is listed as “(8) (0.001) μM”.
Turning to `CCOC(=O)C(C(C)=O)C(c1ccc(O)cc1)c1c(O)c2ccccc2oc1=O` (stereo not shown) [(9), Ethyl 2-[(4-Hydroxy-2-Oxo-2H-Chromen-3-yl)(4-Hydroxyphenyl)Methyl]-3-Oxobutanoate], the “Infection assay MTT- % cell survival” value in the series on HIV-1 III B was determined as 0%. Also, the “% Inhibition of HIV-1 protease activity” value at native HIV-1 protease is given as 0%. Also, the “maximal nontoxic concentration (MNC)” value in the series on MT-4 cells was “(9) (0.0001) μM”.
For the compound `CCOC(=O)C(C(C)=O)C(c1ccc(O)c(O)c1)c1c(O)c2ccccc2oc1=O` (stereo not shown) [(10), Ethyl 2-[(3,4-Dihydroxyphenyl)(4-Hydroxy-2-Oxo-2H-Chromen-3-yl)Methyl]-3-Oxobuta-Noate], in the series on HIV-1 III B, the “inhibition of virus infectivity / viral replication in MT-4 cells” value is recorded as “inhibited viral replication” and the “Infection assay MTT- % cell survival” value was 30%. In addition, the “% Inhibition of HIV-1 protease activity” value at native HIV-1 protease was found to be 16%. Also, the “maximal nontoxic concentration (MNC)” value with MT-4 cells is “(10) (0.0001) μM”.
Turning to `CCOC(=O)C(C(C)=O)C(c1ccc(C(=O)O)cc1)c1c(O)c2ccccc2oc1=O` (stereo not shown) [(11), 4-[1-(4-Hydroxy-2-Oxo-2H-Chromen-3-yl)-2-(Ethoxycarbonyl)-3-Oxobutyl]Benzoic Acid], the “Infection assay MTT- % cell survival” value with HIV-1 III B worked out at 0%. Also, the “% Inhibition of HIV-1 protease activity” value at native HIV-1 protease is on record as 0%. The “maximal nontoxic concentration (MNC)” value in the series with MT-4 cells is listed as “(11) (0.0001) μM”.
Consider `CC(=O)C(C(C)=O)C(c1ccc(O)cc1)c1c(O)c2ccccc2oc1=O` (stereo not shown) [(12), 3-[(4-Hydroxy-2-Oxo-2H-Chromen-3-yl)(4-Hydroxyphenyl)Methyl]Pentane-2,4-Dione], for which the “Infection assay MTT- % cell survival” value in the series on HIV-1 III B stood at 0%. The “% Inhibition of HIV-1 protease activity” value on native HIV-1 protease came to 0%. The “maximal nontoxic concentration (MNC)” value with MT-4 cells was “(12) (0.001) μM”.
With `Nc1nc(NC2CC2)c2ncn([C@H]3C=C[C@@H](CO)C3)c2n1` [Abacavir, reference compound], the “Infection assay MTT- % cell survival” value in the series with HIV-1 III B is reported as 98%. Besides, the “maximal nontoxic concentration (MNC), concentration tested” value in the series on MT-4 cells is on record as “Abacavir® (35 × 10^−6 M)”.
Turning to `CCOC(=O)C(C(C)=O)C(c1cccc([N+](=O)[O-])c1)c1c(O)c2ccccc2oc1=O` (stereo not shown) [Compound (7), Ethyl 2-[(4-Hydroxy-2-Oxo-2H-Chromen-3-yl)(3-Nitrophenyl)Methyl]-3-Oxobutanoate], in the series with HIV-1 III B, the “inhibition of virus infectivity / viral replication in MT-4 cells” value is given as 76–78% and the “Infection assay MTT- % cell survival” value came out at 78%. The IC50 in the series on HIV-1 III B (Human immunodeficiency virus 1, MT4, read-out: IC50 (concentration inhibiting by 50% the viral replication)) was determined as 10 pM. Also, the “% Inhibition of HIV-1 protease activity” value at native HIV-1 protease came out at 25%. In the series on MT-4 cells, the “maximal nontoxic concentration (MNC)” value is “(7) (0.001) μM”. In the series on MT-4 cells (as stated in abstract), this compound had a maximal nontoxic concentration of 1 mM.
Regarding `CC(C)CC(=O)N[C@H](C(=O)N[C@H](C(=O)N[C@@H](CC(C)C)[C@@H](O)CC(=O)N[C@@H](C)C(=O)N[C@@H](CC(C)C)[C@@H](O)CC(=O)O)C(C)C)C(C)C` [Pepstatin, pepstatin, reference compound] (Isovaleryl-VV[Sta]A[Sta]-OH), the “% Inhibition of HIV-1 protease activity” value at native HIV-1 protease is listed as 100%. Further, the “maximal nontoxic concentration (MNC), concentration tested” value in the series on MT-4 cells was “Pepstatin® (4.5 × 10^−5 M)”.
